Data published in the supplement of paper PMC11061612.

Legend:
Assay in all cases: combination Emax (second highest fraction inhibited in the dose matrix, 72 h); higher = more inhibition; extreme values may be limits of the assay
[1] = test system: NCI-H1876 (Small Cell Lung Carcinoma)
Method in brief: (§1)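 Cell lines grown in DMEM/F12 or RPMI with 10% FBS were plated in 1536-well plates and held 24 hours at 37°C, 5% CO2 before 72 hours of exposure to two-drug dose matrices, with DMSO typically at 0.2%. CellTiter-Glo 2.0 luminescence gave viability, which was converted to inhibition. Vehicle wells were set to 0 and blank wells to 1. Combination Emax is the second-highest inhibition in the matrix, and Bliss excess is the observed combination effect minus the expected EA + EB − EA·EB, where EA and EB are the single-agent effects.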

[2] = test system: IA-LM (Non-Small Cell Lung Carcinoma)
Method in brief: as §1

[3] = test system: KP-4 (Pancreatic Carcinoma)
Method in brief: as §1

[4] = test system: NCI-H596 (Other Solid Carcinomas)
Method in brief: as §1

ES6 (Ewing's Sarcoma) = test system: ES6 (Ewing's Sarcoma)
Method in brief: as §1

[5] = test system: MOLT-13 (T-Lymphoblastic Leukemia)
Method in brief: as §1

[6] = test system: MONO-MAC-6 (Acute Myeloid Leukemia)
Method in brief: as §1

[7] = test system: BHT-101 (Thyroid Gland Carcinoma)
Method in brief: as §1

[8] = test system: SCC-4 (Oral Cavity Carcinoma)
Method in brief: as §1

[9] = test system: OVCAR-3 (Ovarian Carcinoma)
Method in brief: as §1

[10] = test system: LCLC-103H (Non-Small Cell Lung Carcinoma)
Method in brief: as §1

SK-N-SH (Neuroblastoma) = test system: SK-N-SH (Neuroblastoma)
Method in brief: as §1

[11] = test system: PA-TU-8988T (Pancreatic Carcinoma)
Method in brief: as §1

[12] = test system: SK-CO-1 (Colorectal Carcinoma)
Method in brief: as §1

[13] = test system: CPC-N (Small Cell Lung Carcinoma)
Method in brief: as §1

[14] = test system: MDA-MB-415 (Breast Carcinoma)
Method in brief: as §1

NCI-H226 (Mesothelioma) = test system: NCI-H226 (Mesothelioma)
Method in brief: as §1

[15] = test system: NCI-H1963 (Small Cell Lung Carcinoma)
Method in brief: as §1

[16] = test system: SNU-407 (Colorectal Carcinoma)
Method in brief: as §1

GAK (Melanoma) = test system: GAK (Melanoma)
Method in brief: as §1

Row | SMILES | combination Emax [1] | combination Emax [2] | combination Emax [3] | combination Emax [4] | combination Emax (ES6 (Ewing's Sarcoma)) | combination Emax [5] | combination Emax [6] | combination Emax [7] | combination Emax [8] | combination Emax [9] | combination Emax [10] | combination Emax (SK-N-SH (Neuroblastoma)) | combination Emax [11] | combination Emax [12] | combination Emax [13] | combination Emax [14] | combination Emax (NCI-H226 (Mesothelioma)) | combination Emax [15] | combination Emax [16] | combination Emax (GAK (Melanoma))
1 | CCc1c2c(nc3ccc(O)cc13)-c1cc3c(c(=O)n1C2)COC(=O)[C@]3(O)CC [SN-38] + CN(C)CCCOc1ccc(-c2ccc3ncc4c(c3c2)n(C2CCOCC2)c(=O)n4C)cn1 [AZD0156] (first compound max 0.3 µM, 7x7, partner max 1 µM) | 1 | 0.882 | 0.817 | 0.348 | 0.603 | 1 | 1 | 0.774 | 0.839 | 0.449 | 0.486 | 0.909 | 0.704 | 0.887 | 0.549 | 0.294 | 0.337 | 0.822 | 0.416 | 0.477
2 | C[C@@H](c1ccc2nccn2c1)n1nnc2ncc(-c3cnn(C)c3)nc21 [Savolitinib] + CC1(C)CCC(CN2CCN(c3ccc(C(=O)NS(=O)(=O)c4ccc(NCC5CCOCC5)c([N+](=O)[O-])c4)c(Oc4cnc5[nH]ccc5c4)c3)CC2)=C(c2ccc(Cl)cc2)C1 [Venetoclax] (first compound max 1 µM, 7x7, partner max 1 µM) | 0.0954 | 0.197 | 0.453 | 0.229 | 0.179 | 0.467 | 0.213 | 0.14 | 0.101 | 0.0969 | 0.146 | 0.32 | 0.165 | 0.0828 | 0.203 | 0.261 | 0.17 | 0.422 | 0.231 | 0.199
3 | C[C@@H](c1ccc2nccn2c1)n1nnc2ncc(-c3cnn(C)c3)nc21 [Savolitinib] + Cc1c2c(nn1C)CSCc1cc(n(C)n1)CSc1cc(c3ccccc3c1)OCCCc1c(C(=O)O)n(C)c3c-2c(Cl)ccc13 [AZD5991] (first compound max 1 µM, 7x7, partner max 1 µM) | 0.32 | 0.268 | 0.435 | 0.197 | 0.174 | 0.99 | 0.997 | 0.133 | 0.183 | 0.195 | 0.211 | 0.267 | 0.243 | 0.114 | 0.263 | 0.344 | 0.131 | 0.192 | 0.666 | 0.264
4 | Cn1cnc2c(F)c(Nc3ccc(Br)cc3Cl)c(C(=O)NOCCO)cc21 [Selumetinib] + C=CCn1c(=O)c2cnc(Nc3ccc(N4CCN(C)CC4)cc3)nc2n1-c1cccc(C(C)(C)O)n1 [AZD1775] (first compound max 10 µM, partner max 1 µM) | 0.982 | 0.296 | 0.6 | 0.223 | 0.233 | 1 | 0.743 | 0.828 | 0.452 | 0.626 | 0.43 | 0.381 | 0.805 | 0.794 | 0.748 | 0.23 | 0.145 | 0.913 | 0.722 | 0.719
5 | Cn1cnc2c(F)c(Nc3ccc(Br)cc3Cl)c(C(=O)NOCCO)cc21 [Selumetinib] + CC(C)n1c(=O)n(C)c2cnc3cc(F)c(-c4ccc(OCCCN5CCCCC5)nc4)cc3c21 [AZD1390] (first compound max 10 µM, 7x7, partner max 0.3 µM) | 0.272 | 0.244 | 0.283 | 0.21 | 0.147 | 0.456 | 0.231 | 0.791 | 0.278 | 0.048 | 0.138 | 0.146 | 0.321 | 0.776 | 0.0753 | 0.222 | 0.133 | 0.303 | 0.507 | 0.626
6 | Cn1cnc2c(F)c(Nc3ccc(Br)cc3Cl)c(C(=O)NOCCO)cc21 [Selumetinib] + CCN(CCO)CCCOc1ccc2c(Nc3cc(CC(=O)Nc4cccc(F)c4)[nH]n3)ncnc2c1 [AZD2811] (first compound max 10 µM, 7x7, partner max 1 µM) | 0.792 | 0.28 | 0.678 | 0.23 | 0.15 | 1 | 0.703 | 0.846 | 0.415 | 0.182 | 0.376 | 0.289 | 0.321 | 0.878 | 0.717 | 0.248 | 0.216 | 0.902 | 0.726 | 0.629
7 | Cn1cnc2c(F)c(Nc3ccc(Br)cc3Cl)c(C(=O)NOCCO)cc21 [Selumetinib] + C[C@@H]1COCCN1C2=NC(=NC(=C2)C3(CC3)[S@](=N)(=O)C)C4=C5C=CNC5=NC=C4 [AZD6738] (first compound max 10 µM, 7x7, partner max 10 µM) | 0.895 | 0.287 | 0.506 | 0.36 | 0.367 | 1 | 0.931 | 0.883 | 0.502 | 0.4 | 0.324 | 0.769 | 0.466 | 0.808 | 0.824 | 0.458 | 0.152 | 0.855 | 0.758 | 0.667
